Test results reported in ChEMBL document CHEMBL4385613, “Discovery of Conformational Control Inhibitors Switching off the Activated c-KIT and Targeting a Broad Range of Clinically Relevant c-KIT Mutants” (J Med Chem, 2019).
pIC50: −log10 of the molar value. Active and inactive are the calls of the source. The calls are words filed in the database; no cut-off is given here.

Key:
[1] = molecular target: T1, Mast/stem cell growth factor receptor Kit (Homo sapiens, UniProt P10721); test: Inhibition of unactivated recombinant human N-terminal 6x-His-tagged c-KIT (547 to 935 residues)/(694 to 753 residues deletion) expressed in baculovirus infected Sf9 insect cells assessed as decrease in poly (Glu,Tyr) 4:1 phosphorylation incubated for 30 mins followed by ATP addition and measured after 120 mins by Kinase Glo based luminescence assay
[2] = tested on: Mast/stem cell growth factor receptor Kit (Homo sapiens), P10721 [V654A]; test: Inhibition of human c-KIT ATP binding domain exon 13 V654A single mutant at 10 nM using poly (Glu,Tyr) 4:1 as substrate in presence of 33P-gamma-ATP by hotspot kinase assay relative to control
[3] = tested on: Mast/stem cell growth factor receptor Kit (Homo sapiens), P10721 [UNDEFINED MUTATION]; test: Inhibition of c-KIT V560-L576 deletion/V654A double mutant phosphorylation in human GIST430 cells assessed as decrease in phosphorylation of MAPK at 10 to 100 nM measured after 24 to 72 hrs by Western blot analysis; assay type: cell-based
[4] = molecular target: Mast/stem cell growth factor receptor Kit (Homo sapiens, UniProt P10721, V560G); test: Inhibition of human c-KIT JM domain exon 11 V560G single mutant using poly (Glu,Tyr) 4:1 as substrate in presence of 33P-gamma-ATP by hotspot kinase assay
[5] = Cmax in ICR mouse at 10 mg/kg, po administered as single dose measured up to 24 hrs by LC-MS/MS analysis; assay type: ADME, organism-based; set-up: dose 10 mg/kg, route oral; settings: in vivo
[6] = molecular target: Mast/stem cell growth factor receptor Kit (Homo sapiens, UniProt P10721, D820E); test: Inhibition of human c-KIT A loop exon 17 D820E single mutant using poly (Glu,Tyr) 4:1 as substrate in presence of 33P-gamma-ATP by hotspot kinase assay
[7] = molecular target: Mast/stem cell growth factor receptor Kit (Homo sapiens, UniProt P10721, V654A); test: Inhibition of human c-KIT ATP binding domain exon 13 V654A single mutant using poly (Glu,Tyr) 4:1 as substrate in presence of 33P-gamma-ATP by hotspot kinase assay
[8] = molecular target: T1, Mast/stem cell growth factor receptor Kit; test: Inhibition of recombinant human N-terminal 6x-His-tagged c-KIT (547 to 935 residues)/(694 to 753 residues deletion) expressed in baculovirus infected Sf9 insect cells assessed as decrease in poly (Glu,Tyr) 4:1 phosphorylation measured after 150 mins in presence of ATP by ADP-glo based luminescence assay
[9] = tested on: Mast/stem cell growth factor receptor Kit (Homo sapiens), P10721 [D816H]; settings: at 10 nM
Description: Inhibition of human c-KIT A loop exon 17 D816H single mutant at 10 nM using poly (Glu,Tyr) 4:1 as substrate in presence of 33P-gamma-ATP by hotspot kinase assay relative to control

[10] = tested on: Mast/stem cell growth factor receptor Kit (Homo sapiens), P10721 [V654A]; test: Inhibition of human c-KIT ATP binding domain exon 13 V654A single mutant at 100 nM using poly (Glu,Tyr) 4:1 as substrate in presence of 33P-gamma-ATP by hotspot kinase assay relative to control
[11] = molecular target: Mast/stem cell growth factor receptor Kit (Homo sapiens, UniProt P10721, D816H); test: Inhibition of human c-KIT A loop exon 17 D816H single mutant using poly (Glu,Tyr) 4:1 as substrate in presence of 33P-gamma-ATP by hotspot kinase assay
Sequence of Mast/stem cell growth factor receptor Kit (Homo sapiens, UniProt P10721, D816H) (P10721 26-976 D816H limits assumed): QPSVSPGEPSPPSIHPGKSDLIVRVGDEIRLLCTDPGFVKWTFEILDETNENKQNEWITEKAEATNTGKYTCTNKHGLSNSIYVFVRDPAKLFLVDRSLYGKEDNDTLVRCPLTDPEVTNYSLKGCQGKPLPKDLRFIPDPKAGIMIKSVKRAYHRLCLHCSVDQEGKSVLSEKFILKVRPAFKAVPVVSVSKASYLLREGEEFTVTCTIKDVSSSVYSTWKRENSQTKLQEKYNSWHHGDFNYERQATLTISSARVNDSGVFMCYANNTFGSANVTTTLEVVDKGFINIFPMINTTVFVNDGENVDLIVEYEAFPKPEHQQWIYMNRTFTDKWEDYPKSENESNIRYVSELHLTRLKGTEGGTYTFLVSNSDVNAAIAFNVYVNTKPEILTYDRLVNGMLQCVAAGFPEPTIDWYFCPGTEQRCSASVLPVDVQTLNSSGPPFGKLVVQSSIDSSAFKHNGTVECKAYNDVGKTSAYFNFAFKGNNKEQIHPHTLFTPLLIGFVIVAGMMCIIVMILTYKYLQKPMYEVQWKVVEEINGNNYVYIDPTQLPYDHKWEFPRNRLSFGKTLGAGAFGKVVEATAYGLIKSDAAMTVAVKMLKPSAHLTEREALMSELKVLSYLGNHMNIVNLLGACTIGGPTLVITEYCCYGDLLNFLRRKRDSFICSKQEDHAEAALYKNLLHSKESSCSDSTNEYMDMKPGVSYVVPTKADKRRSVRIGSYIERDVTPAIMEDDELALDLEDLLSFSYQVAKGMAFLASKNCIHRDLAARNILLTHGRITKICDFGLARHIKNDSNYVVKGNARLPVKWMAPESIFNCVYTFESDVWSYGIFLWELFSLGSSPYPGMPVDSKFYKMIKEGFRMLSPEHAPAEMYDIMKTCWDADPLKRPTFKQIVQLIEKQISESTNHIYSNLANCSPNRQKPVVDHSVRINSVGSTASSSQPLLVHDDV

Sequence of Mast/stem cell growth factor receptor Kit (Homo sapiens), P10721 [V654A] (P10721 whole entry V654A, the tested form may be a part): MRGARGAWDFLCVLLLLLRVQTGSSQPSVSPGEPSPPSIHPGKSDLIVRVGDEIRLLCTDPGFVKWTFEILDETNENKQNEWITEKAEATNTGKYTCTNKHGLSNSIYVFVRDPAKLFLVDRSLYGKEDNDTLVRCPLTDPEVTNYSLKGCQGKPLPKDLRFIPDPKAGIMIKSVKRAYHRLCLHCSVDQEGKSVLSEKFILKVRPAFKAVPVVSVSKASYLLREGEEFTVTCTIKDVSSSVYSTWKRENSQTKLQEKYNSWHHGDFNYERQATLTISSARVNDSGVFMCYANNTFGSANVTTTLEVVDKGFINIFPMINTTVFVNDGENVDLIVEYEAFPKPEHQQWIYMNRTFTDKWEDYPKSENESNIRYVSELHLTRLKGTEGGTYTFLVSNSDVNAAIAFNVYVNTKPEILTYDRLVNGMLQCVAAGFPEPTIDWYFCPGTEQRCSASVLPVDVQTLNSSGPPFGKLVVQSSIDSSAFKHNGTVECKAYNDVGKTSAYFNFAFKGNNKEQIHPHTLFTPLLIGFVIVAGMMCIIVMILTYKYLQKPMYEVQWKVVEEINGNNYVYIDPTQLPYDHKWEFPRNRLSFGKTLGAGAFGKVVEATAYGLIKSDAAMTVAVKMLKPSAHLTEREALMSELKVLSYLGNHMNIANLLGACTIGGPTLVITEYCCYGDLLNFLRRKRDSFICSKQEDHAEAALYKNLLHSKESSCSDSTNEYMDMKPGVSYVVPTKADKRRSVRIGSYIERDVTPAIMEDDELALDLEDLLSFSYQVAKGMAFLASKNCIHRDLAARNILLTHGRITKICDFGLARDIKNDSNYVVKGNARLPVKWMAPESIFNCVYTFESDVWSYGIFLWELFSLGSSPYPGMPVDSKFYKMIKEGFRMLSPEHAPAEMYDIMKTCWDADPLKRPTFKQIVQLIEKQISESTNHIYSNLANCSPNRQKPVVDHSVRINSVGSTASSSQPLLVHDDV
Sequence of Mast/stem cell growth factor receptor Kit (Homo sapiens, UniProt P10721, D820E) (P10721 26-976 D820E limits assumed): as the sequence (P10721 26-976 D816H limits assumed) above, with H791D, D795E counted along it
Sequence of Mast/stem cell growth factor receptor Kit (Homo sapiens, UniProt P10721, V654A) (P10721 26-976 V654A limits assumed): as the sequence (P10721 26-976 D816H limits assumed) above, with V629A, H791D counted along it
Sequence of Mast/stem cell growth factor receptor Kit (Homo sapiens, UniProt P10721, V560G) (P10721 26-976 V560G limits assumed): as the sequence (P10721 26-976 D816H limits assumed) above, with V535G, H791D counted along it
Sequence of Mast/stem cell growth factor receptor Kit (Homo sapiens), P10721 [UNDEFINED MUTATION] (P10721 whole entry, looked up, stated change not applied, the tested form may be a part): as the sequence (P10721 whole entry V654A, the tested form may be a part) above, with A654V counted along it
Sequence of Mast/stem cell growth factor receptor Kit (Homo sapiens), P10721 [D816H] (P10721 whole entry D816H, the tested form may be a part): as the sequence (P10721 whole entry V654A, the tested form may be a part) above, with A654V, D816H counted along it

CCc1cc(NC(=O)Nc2ccc(-c3cnc(Nc4cc(N5CCN(CC)CC5)ncn4)s3)cc2)no1
pIC50 [1]: 7.16 | inhibition [2]: 43% | inhibition [3]: Active | pIC50 [4]: 9.01 | Cmax [5]: 562 ng/mL | pIC50 [6]: 9.09 | pIC50 [7]: 8.38 | pIC50 [8]: 7.09 | inhibition [9]: 73% | inhibition [10]: 75% | pIC50 [11]: 9.17
